These results are taken from patent US11866405B2, “Substituted indazoles as IRAK4 inhibitors” (AstraZeneca AB, priority 2020, dated 2024).

Experiment [1] deals with human recombinant IRAK4 protein (Homo sapiens (Human), UniProt Q9NWZ3). Kind of experiment: IRAK4 enzyme assay (mass spectrometry readout). The experiment is classed as biochemical. The note with it: 3 mM ATP, 0.2 nM enzyme; geometric mean of at least n=2, * single experiment. Here is the method: Potency of IRAK4 Inhibitor Compounds in IRAK4 Enzyme Assay
Chain of human recombinant IRAK4 protein (Q9NWZ3 whole entry): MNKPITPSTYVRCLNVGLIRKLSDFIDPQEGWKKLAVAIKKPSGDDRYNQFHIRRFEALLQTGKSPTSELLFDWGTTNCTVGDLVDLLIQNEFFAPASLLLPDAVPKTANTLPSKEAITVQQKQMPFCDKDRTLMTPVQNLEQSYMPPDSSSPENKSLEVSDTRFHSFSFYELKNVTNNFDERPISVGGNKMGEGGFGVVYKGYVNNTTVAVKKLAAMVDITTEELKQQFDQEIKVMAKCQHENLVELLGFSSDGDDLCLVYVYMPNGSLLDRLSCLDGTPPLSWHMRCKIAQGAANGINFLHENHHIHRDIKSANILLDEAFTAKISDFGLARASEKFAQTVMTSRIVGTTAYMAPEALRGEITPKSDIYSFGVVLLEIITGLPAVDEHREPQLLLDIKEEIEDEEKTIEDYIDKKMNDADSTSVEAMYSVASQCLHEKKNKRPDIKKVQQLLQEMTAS
The inhibitory activity of compounds against IRAK4 were determined in an enzymatic assay using mass spectrometry readout. Ten point half-log compound concentration response curves, with a top concentration of 1 μM or 10 μM, were generated from 10 mM stocks of compound solubilized in DMSO using an Echo 655 (Labcyte Inc) and added to 384 well assay plates (Greiner #781280). To the assay plates, 10 μL of human recombinant IRAK4 protein (Life Technologies #PV4002) diluted to a final concentration of 0.2 nM in assay buffer (50 mM Tris-HCl pH 7.4, 10 mM MgCl, 5 mM glutathione, 0.01% BSA, 3 mM ATP) was added. The enzyme was incubated with the compounds at room temperature for 15 minutes before a peptide substrate ([…], Innovagen custom synthesis, 10 mM in DMSO) was added to each well to a final concentration of 10 μM using an Echo 655 (Labcyte Inc). After two hours at room temperature, the reaction was stopped with 90 μL of 0.4% formic acid (Merck #33015). The unphosphorylated and phosphorylated peptide were measured by LC-MS/MS on a Waters TQ-S mass spectrometer. Peaks were integrated using the TargetLynx software and the ratios between phosphorylated and unphosphorylated peptides were calculated. Curves were fitted and compound potencies determined in Genedata Screener 15 (Genedata AG). Data presented are the geometric mean of at least n=2, or as denoted by an * are obtained from a single experiment.

Experiment [2] addresses IRAK4 auto-phosphorylation (Homo sapiens (Human), UniProt Q9NWZ3). Kind of experiment: IRAK4 phosphorylation cell assay in IL-1β-stimulated Karpas-299 cells. The experiment is classed as cell-based. The note with it: IL-1β 22.7 ng/mL, pIRAK4 (Thr345/Ser346), geometric mean of at least 2 experiments. Here is the method: IRAK4 Phosphorylation Cell Assay
The activation of IRAK4 by TLR or IL-1R ligands leads to IRAK4 auto-phosphorylation, which can be prevented by IRAK4 kinase inhibitors. The effect of IRAK4 inhibitor compounds on IRAK4 auto-phosphorylation was assessed in IL-1β-stimulated Karpas-299 cells as a measurement of cellular potency. Karpas-299 cells were cultured in RPMI 1640 (Gibco 61870-010) containing 10% FBS (Gibco #10270). Cells were plated at 2×10^4 cells per well in poly-D-lysine coated 384 well plates (Corning #356663) to which compounds had been added at various concentrations (10 point half log dose response with a final top concentration of 30 μM) using an Echo 655 (Labcyte Inc). Cells were centrifuged (250 g, 4 mins), incubated at 37° C. for 1 h, then stimulated with 22.7 ng/mL recombinant IL-1β (R&D Systems, #201-LB-025) at 37° C. for 10 mins, followed by fixation in 4% paraformaldehyde for 10 mins and permeabilization in ice-cold 70% MeOH for 30 mins. Cells were washed twice with phosphate-buffered saline (PBS) on a BlueWasher (BlueCatBio) then blocked with PBS containing 10% FBS for 20 mins. Blocking solution was removed with a BlueWasher and cells were stained with anti-pIRAK4 (Thr345/Ser346) (CST, #11927, 1:400) in blocking buffer with 0.05% Tween-20 for 1 h, then washed twice with PBS containing 0.05% Tween-20 on a BlueWasher, followed by staining with a Alexa 647-conjugated secondary anti-rabbit IgG antibody (CST, #4414, 1:2,000) and Hoechst 33342 (Sigma, 1:2,000) in blocking buffer with 0.05% Tween-20 for 30 mins. Finally, the cells were washed twice with PBS containing 0.05% Tween-20 and imaged on an ImageXpress Micro (Molecular Devices) with a 10× air objective using the appropriate filters. Images were analysed in Columbus (PerkinElmer) and the fluorescence intensity per cell from the secondary antibody was quantified. The quantified data were analysed in Genedata Screener 15 (Genedata AG). […] IC50 values are the geometric mean of at least 2 experiments.

In general, IC50 refers to the point on the concentration scale where inhibition reaches its midpoint.

Chain of IRAK4 auto-phosphorylation (Q9NWZ3 whole entry): as above

`COc1cc2nn([C@@H]3CC[C@H](O)[C@H](C)C3)cc2cc1C(=O)Nc1cnc2cccnn12` (single isomer, unassigned) [Example 77]: the IC50 turned out to be 0.7 nM in experiment [1] and 14 nM in experiment [2].

For `COc1cc2nn([C@H]3CC[C@H](O)[C@H](C)C3)cc2cc1C(=O)Nc1cnc2cccnn12` (single isomer, unassigned) [Example 78], the IC50 in experiment [1] was 2.5 nM; in experiment [2] it was 52 nM.

As to `COc1cc2nn([C@H]3CC[C@H](O)[C@H](C)C3)cc2cc1C(=O)Nc1cnc2cccnn12` (single isomer, unassigned) [Example 79], the IC50 in experiment [1] is 1 nM; in experiment [2], 21 nM.

In the case of `COc1cc2nn([C@H]3CC[C@H](O)[C@@H](C)C3)cc2cc1C(=O)Nc1cnc2cccnn12` (single isomer, unassigned) [Example 81], the IC50 was 5.1 nM in experiment [1] and 82 nM in experiment [2].

With `COc1cc2nn([C@@H]3CC[C@H](O)[C@@H](C)C3)cc2cc1C(=O)Nc1cnc2cccnn12` (single isomer, unassigned) [Example 82], the IC50 worked out at 2.4 nM in experiment [1] and 27 nM in experiment [2].

As to `COc1cc2nn([C@@H]3CC[C@H](O)[C@@H](C)C3)cc2cc1C(=O)Nc1cnc2cccnn12` (single isomer, unassigned) [Example 83], the IC50 in experiment [1] worked out at 2.1 nM; in experiment [2] it was 34 nM.

On to `COc1cc2nn([C@H]3CCC[C@@H](O)[C@H]3C)cc2cc1C(=O)Nc1cnc2cccnn12` (single isomer, unassigned) [Example 104], for which the IC50 in experiment [1] came to 1.1 nM; in experiment [2] it was 25 nM.

For `COc1cc2nn([C@H]3CCC[C@@H](O)[C@H]3C)cc2cc1C(=O)Nc1cnc2cccnn12` (single isomer, unassigned) [Example 105], the results for the IC50 in experiment [1] and in experiment [2] were 6.5 nM and 96 nM, respectively.

Turning to `COc1cc2nn([C@H]3CCC[C@@H](O)[C@@H]3C)cc2cc1C(=O)Nc1cnc2cccnn12` (single isomer, unassigned) [Example 108], the IC50 in experiment [1] stood at 0.4 nM; in experiment [2] it was 16 nM.

For `COc1cc2nn([C@H]3CCC[C@@H](O)[C@@H]3C)cc2cc1C(=O)Nc1cnc2cccnn12` (single isomer, unassigned) [Example 109], the IC50 in experiment [1] was determined as 0.6 nM; in experiment [2], 15 nM.

For `COc1cc2nn(C3CCC4(CC3)COCC(=O)N4C)cc2cc1C(=O)Nc1cnn2cccnc12` (single isomer, unassigned) [Example 118, 6-Methoxy-2-(1-methyl-2-oxo-4-oxa-1-azaspiro[5.5]undecan-9-yl)-N-(pyrazolo[1,5-a]pyrimidin-3-yl)-2H-indazole-5-carboxamide], the IC50 in experiment [1] was 13.9 nM; in experiment [2], 199 nM.

For the molecule `COc1cc2nn(C3CCC4(CC3)COCC(=O)N4C)cc2cc1C(=O)Nc1cnn2cccnc12` (single isomer, unassigned) [Example 119, 6-Methoxy-2-(1-methyl-2-oxo-4-oxa-1-azaspiro[5.5]undecan-9-yl)-N-(pyrazolo[1,5-a]pyrimidin-3-yl)-2H-indazole-5-carboxamide], the figures for the IC50 in experiment [1] and in experiment [2] were 0.5 nM and 16 nM, respectively.

As for `COc1cc2nn([C@H]3CC[C@@]4(CCC(=O)N4C)CC3)cc2cc1C(=O)Nc1cnc2cccnn12` [Example 1, N-(Imidazo[1,2-b]pyridazin-3-yl)-6-methoxy-2-((5r,8r)-1-methyl-2-oxo-1-azaspiro[4.5]decan-8-yl)-2H-indazole-5-carboxamide], the IC50 in experiment [1] was determined as 0.1 nM; in experiment [2], 5 nM.

Take `COc1cc2nn([C@H]3CC[C@]4(CCC(=O)N4C)CC3)cc2cc1C(=O)Nc1cnc2cccnn12` [Example 2, N-(Imidazo[1,2-b]pyridazin-3-yl)-6-methoxy-2-((5s,8s)-1-methyl-2-oxo-1-azaspiro[4.5]decan-8-yl)-2H-indazole-5-carboxamide]: the IC50 in experiment [1] came out at 3.4 nM; in experiment [2] it was 124 nM.

Turning to `COc1cc2nn([C@H]3CC[C@@H](C(=O)N(C)C)CC3)cc2cc1C(=O)Nc1cnc2cccnn12` [Example 3, 2-((1s,4s)-4-(Dimethylcarbamoyl)cyclohexyl)-N-(imidazo[1,2-b]pyridazin-3-yl)-6-methoxy-2H-indazole-5-carboxamide], the values for the IC50 in experiment [1] and in experiment [2] were 8.5 nM and 272 nM, respectively.

As for `COc1cc2nn([C@H]3CC[C@H](C(=O)N(C)C)CC3)cc2cc1C(=O)Nc1cnc2cccnn12` [Example 4, 2-((1r,4r)-4-(Dimethylcarbamoyl)cyclohexyl)-N-(imidazo[1,2-b]pyridazin-3-yl)-6-methoxy-2H-indazole-5-carboxamide], the IC50 was below 0.3 nM in experiment [1] and 17 nM in experiment [2].

Take `COc1cc2nn([C@H]3CC[C@@H](N(C)C(C)=O)CC3)cc2cc1C(=O)Nc1cnc2cccnn12` [Example 22, N-(Imidazo[1,2-b]pyridazin-3-yl)-6-methoxy-2-((1s,4s)-4-(N-methylacetamido)cyclohexyl)-2H-indazole-5-carboxamide]: the values for the IC50 in experiment [1] and in experiment [2] were 5.1 nM and 268 nM, respectively.

Consider `COc1cc2nn([C@H]3CC[C@@H](N(C)C(C)=O)CC3)cc2cc1C(=O)Nc1cnn2cnccc12` [Example 24, 6-Methoxy-2-((1s,4s)-4-(N-methylacetamido)cyclohexyl)-N-(pyrazolo[1,5-c]pyrimidin-3-yl)-2H-indazole-5-carboxamide], for which the IC50 in experiment [1] was 83.1 nM; in experiment [2], 668 nM.

As to `COc1cc2nn([C@H]3CC[C@@H](NC(=O)C4CC4)CC3)cc2cc1C(=O)Nc1cnn2cnccc12` [Example 27, 2-((1s,4s)-4-(Cyclopropanecarboxamido)cyclohexyl)-6-methoxy-N-(pyrazolo[1,5-c]pyrimidin-3-yl)-2H-indazole-5-carboxamide], the IC50 in experiment [1] is 4.4 nM; in experiment [2], 67 nM.

Regarding `O=C(Nc1cnn2cccnc12)c1cc2cn([C@H]3CC[C@@H](O)CC3)nc2cc1OC1CC1` [Example 56], the IC50 in experiment [1] worked out at 1.2 nM; in experiment [2], 79 nM.

Take `COc1cc2nn([C@H]3CC[C@H](N(C)C(=O)[C@@H](C)O)CC3)cc2cc1C(=O)Nc1cnn2cccnc12` [Example 58]: the IC50 in experiment [1] turned out to be 0.9 nM; in experiment [2], 16 nM.

With `COc1cc2nn([C@H]3CC[C@H](N(C)C(=O)[C@H](C)O)CC3)cc2cc1C(=O)Nc1cnn2cccnc12` [Example 59, 2-((1S,4r)-4-((S)-2-Hydroxy-N-methylpropanamido)cyclohexyl)-6-methoxy-N-(pyrazolo[1,5-a]pyrimidin-3-yl)-2H-indazole-5-carboxamide], the IC50 in experiment [1] is 1.3 nM; in experiment [2], 40 nM.

`O=C(Nc1cnc2cccnn12)c1cc2cn([C@H]3CC[C@H](O)CC3)nc2cc1OC1CC1` [Example 84, 6-Cyclopropoxy-2-((1r,4r)-4-hydroxycyclohexyl)-N-(imidazo[1,2-b]pyridazin-3-yl)-2H-indazole-5-carboxamide]: the IC50 in experiment [1] is 0.4 nM; in experiment [2] it was 40 nM.

On to `O=C(Nc1cnc2cccnn12)c1cc2cn([C@H]3CC[C@@H](O)CC3)nc2cc1OC1CC1` [Example 85, 6-Cyclopropoxy-2-((1s,4s)-4-hydroxycyclohexyl)-N-(imidazo[1,2-b]pyridazin-3-yl)-2H-indazole-5-carboxamide], for which the figures for the IC50 in experiment [1] and in experiment [2] were 0.8 nM and 50 nM, respectively.

On to `COc1cc2nn([C@H]3CC[C@@]4(CC3)CC(=O)N(C)C4)cc2cc1C(=O)Nc1cnn2cccnc12` [Example 87, 6-methoxy-2-((5s,8s)-2-methyl-3-oxo-2-azaspiro[4.5]decan-8-yl)-N-(pyrazolo[1,5-a]pyrimidin-3-yl)-2H-indazole-5-carboxamide], for which the values for the IC50 in experiment [1] and in experiment [2] were 0.2 nM and 26 nM, respectively.
